Results taken from patent publication US8318491B2, “Method of differentiating hematopoietic stem cells into natural killer cells using YC-1 or IL-21” (Korea Research Institute of Bioscience and Biotechnology, priority 2007, dated 2012).

Experiments:
[1] = test system: hematopoietic stem cells of cord blood / NK precursor cells (pNK); assay: FACS analysis of CD56+ NK cell population during differentiation of cord blood hematopoietic stem cells into mature NK cells via NK precursor cells; assay type: cell-based, human; conditions: for NK cells (FACS analysis): in the presence of IL-15, FIGS. 10 and 11; for CD56+ NK cell population: cultured in the presence of IL-15, vs IL-15 alone
Method: Cord blood provided from Department of Obstetric & Gynecology, Konyang University Hospital, Taejon, Korea, for the purpose of study only was diluted in RPMI 1640 (GIBCO-BRL, USA) at the ratio of 2:1. The prepared cord blood was loaded on the upper part of Ficoll-Paque (Sigma, USA), followed by centrifugation ([…], 30 minutes) to separate mononuclear cells (MNC). Erythrocytes were eliminated from the obtained cells and the obtained mononuclear cells were marked with the hematopoietic stem cell marker ‘CD34 microbeads’. Then, CD34+ cells were separated by MS/RS column and MACS (Magnetic Activated Cell Sorter). The purity of the obtained CD34+ hematopoietic stem cells (referred as “HSC cells” hereinafter) was measured by FACS (BD Bioscience, Mountainview, Calif.), which was 92% (FIG. 1).
The HSC cells separated from cord blood in Example 1 were inoculated in a 12-well plate (Falcon, USA) containing the Myelocult complete medium (Stem cell Technology, CA) supplemented with 30 ng/ml of human […] (PeproTech, USA), 50 ng/ml of human Flt3L (FMS-like tyrosine kinase 3 ligand, PeproTech, USA), 5 ng/ml of human IL-7 (PeproTech, USA), and 10^−6 M of […] at the concentration of 1×10^6 cells/well, followed by culture for 14 days in a 37° C., 5% CO2 incubator. Three days later, half of the supernatant was replaced with a fresh medium containing cytokines having the same composition as the above. For the differentiation into mature NK cells (referred as “NK cells” hereinafter), HSC cells were recovered 14 days later and cultured again for 14 days in the presence of human IL-15 (30 ng/ml, PeproTech, USA). Three days later, half of the medium was replaced with a fresh medium containing cytokines having the same composition as the above. (FIG. 2). On the 28th day of culture, the purity of NK cells was measured by using anti-CD56 antibody and the expression of NK cell receptor was measured by flow cytometry (FACS) (FIG. 3).
(§1) To investigate the effect on NK cell differentiation of IL-21 known to promote differentiation and increase activity, IL-21 (20 ng/ml, PeproTech, USA) was treated during the process of differentiation from hematopoietic stem cells of cord blood into mature NK cells (mNK) through NK precursor cells (pNK). The cells were cultured in the presence of IL-15, followed by FACS analysis and ^51Cr release assay.
To investigate the effect on NK cell differentiation of YC-1 [3-(5′-hydroxymethyl-2′-furyl)-1-benzylindazole, formula 1] known as an anticancer agent functioning in suppressing HIF-1α activity to inhibit tumor cell growth, YC-1 (1 uM, Sigma) was treated during the process of differentiation from hematopoietic stem cells of cord blood into mature NK cells (mNK) through NK precursor cells (pNK). […]

NK cells = assay: 51Cr release assay of the killing activity of differentiated mature NK cells; assay type: cell-based, human; conditions: cultured in the presence of IL-15
Method: as §1
To investigate the effect on NK cell differentiation of YC-1 [3-(5′-hydroxymethyl-2′-furyl)-1-benzylindazole, formula 1] known as an anticancer agent functioning in suppressing HIF-1α activity to inhibit tumor cell growth, YC-1 (1 uM, Sigma) was treated during the process of differentiation from hematopoietic stem cells of cord blood into mature NK cells (mNK) through NK precursor cells (pNK). The cells were cultured in the presence of IL-15, followed by FACS analysis and ^51Cr release assay.

| Compound | NK cells (FACS analysis) ([1]; YC-1 0.5 uM alone (low concentration)) | CD56+ NK cell population ([1]; YC-1 1 uM treated to pNK, FIGS. 7 and 8) | killing activity of NK cells (NK cells; YC-1 1 uM, E:T 5:1, FIG. 9) | NK cells (FACS analysis) ([1]; IL-21 10 ng/ml alone (low concentration)) | CD56+ NK cell population ([1]; IL-21 20 ng/ml treated to pNK, FIGS. 4 and 5) | killing activity of NK cells (NK cells; IL-21 20 ng/ml, E:T 2.5:1, FIG. 6) |
| --- | --- | --- | --- | --- | --- | --- |
| OCc1ccc(-c2nn(Cc3ccccc3)c3ccccc23)o1 [YC-1, 3-(5′-hydroxymethyl-2′-furyl)-1-benzylindazole] | slightly increased | increased | increased |  |  |  |
| IL-21: cytokine secreted by activated CD4+ T cells; amino acid sequence represented by SEQ. ID. NO: 1 (PeproTech) |  |  |  | slightly increased | increased | increased |
